Laboratory results published in US20130202614A1, “AUTOTAXIN PATHWAY MODULATION AND USES THEREOF” (B.S.R.C. "ALEXANDER FLEMING", priority 2010, published 2013).

Experiments:
Assay type in all cases: cell-based, mouse
[1] = system: primary SFs; experiment: Synovial fibroblast proliferation assay ([3H]thymidine incorporation); conditions: for LPA responses of wt SFs (LPA-induced proliferation): pre-treated with inhibitor prior to LPA stimulation
Protocol: Primary SFs were isolated from 6-8 week old mice as previously described. Briefly, mouse joint specimens were minced and digested with type IV collagenase. The released cells were grown in Dulbecco's modified Eagle's medium (DMEM) supplemented with fetal bovine serum (FBS) and penicillin-streptomycin. Isolated fibroblasts adhered on culture dishes were maintained under standard conditions (37° C. and 5% CO2) and used for the experiments between the third and fifth passages.
Cells were starved with serum-free medium before treatment due to the presence of lysophospholipids in the serum Starvation medium is supplemented with 0.2% fatty-acid-free BSA. After routine starvation, cells were stimulated with various concentrations of the tested compounds (LPA, LPC, S1P or TNF) as indicated in details below. Where indicated cells were pre-treated with the inhibitors of ERK MAPK, p38 MAPK, JNK and Rho kinase for 3 hours prior to LPA stimulation. At the moment of cell treatment, the culture medium was replaced with fresh serum-free medium containing various concentrations of the tested compounds.
Preconfluent cell cultures were starved overnight, incubated for 24 h with LPA and the rest tested compounds and finally exposed to 0.5 μCi/ml of [^3H]thymidine. Cells were then washed, harvested by trypsinization and blotted on a membrane. The radioactivity of incorporated [^3H]-thymidine was determined by liquid scintillation counting.

[2] = system: primary SFs; experiment: SF proinflammatory cytokine secretion (multiplex Luminex ELISA); conditions: especially IL-6
[3] = system: primary SFs; experiment: SF adhesion assay (fibronectin); conditions: LPA stimulation
Protocol: This assay was performed on plates coated with human fibronectin. Briefly, cells were allowed to adhere to the substrate, and unbound cells were removed with sequential washes with PBS. Adhered cells were then stained with crystal violet, solubilized, and their absorbance was determined at 570 nm. The experiment was performed in triplicates.

[4] = system: BDM macrophages; experiment: BMDM cytokine secretion (Luminex); conditions: upon LPA stimulation
[5] = system: primary SFs; experiment: SF cell migration assay (Boyden chambers); conditions: LPA stimulation
Protocol: Modified Boyden chambers with 8-μm pores (Corning/Costar) were used where the lower surface of the membrane was coated with 10 μg/ml human fibronectin for 2 hours at 37° C. Cells were harvested with trypsin/EDTA, washed with PBS, and resuspended to 1×10^6 cells per ml. The suspension was added to the upper chamber, and the cells were allowed to migrate at 37° C., 5% CO2, for 4 hours. Non-migratory cells were removed from the upper surface of the membrane while migratory cells in the lower compartment of the chambers were washed with PBS and stained with 0.2% crystal violet in 10% ethanol for 10 min. After extensive washing in H2O, the cells were lysed and absorbance was measured at 570 nm with a SPECTRAmax photometer.

[6] = system: BMD macrophages; experiment: Macrophage proliferation upon LPA addition; conditions: primary cultures
[7] = system: primary SFs; experiment: MMP production by SFs (RT-PCR); conditions: MMP-9
Protocol: Total RNA was extracted from subconfluent cultured SFs with the TRIzol reagent (Invitrogen Ltd, Paisley, PA4 9RF, UK Carlsbad, Calif. 92008) according to the manufacturer's instructions. RNA yield and purity were determined spectrophotometrically at 260/280 nm. cDNA synthesis was performed using the MMLV reverse transcriptase (Promega, Madison, Wis., United States Madison, Wis. 53711 USA). In all cases the normalization was performed in relation to the B2m internal control.
SQ PCR was performed by 20-27 cycles of denaturation at 95° C. for 30 s, annealing at 56-60° C. (depending on the Tm of each individual set of primers) for 30 s, and extension at 72° C. for 1 min, in a final volume of 20 μl. The products were separated by electrophoresis on 1.5% agarose gel and stained with ethidium bromide. […] Quantitative real-time PCR was performed using the iCycler Iq Real-Time detection system and the IQ SYBR Green Supermix (Bio-Rad Laboratories, Hercules, Calif., United States), according to the manufacturer's instructions, for one cycle of 95° C. for 3 min, and 42 cycles of denaturation at 95° C. for 30 s and annealing at 56-58° C. for 45 s. […]

[8] = system: primary SFs; experiment: SF actin cytoskeleton rearrangement (phalloidin F-actin staining); conditions: phaloidin-F-actin staining
Protocol: Cells were cultured on glass coverslips, grown in the presence of serum to subconfluence, and starved for 24 h by replacing the medium with serum-free medium containing 0.1% bovine serum albumin. Then the cells were treated with LPA and other components in serum-free medium for 4 h, fixed with 4% PFA and stained for F-actin with TRITC-conjugated phalloidin according to the manufacturer's protocol.

Compound: C[S+]([O-])c1ccc(-c2nc(-c3ccncc3)c(-c3ccc(F)cc3)[nH]2)cc1 (centres unmarked) [SB203580]
- LPA responses of wt SFs (LPA-induced proliferation) [1]: inhibited

Compound: C[C@@H](N)[C@H]1CC[C@H](C(=O)Nc2ccncc2)CC1 [Hybridoma Y27632]
- LPA responses of wt SFs (LPA-induced proliferation) [1]: inhibited

Compound: CCCCCCCC/C=C\CCCCCCCC(=O)OC[C@@H](O)COP(=O)([O-])OCC[N+](C)(C)C [LPC, 1-oleoyl-LPC (18:1)]
- proliferation of mRA SFs ([1]; 3H-thymidine incorporation): did stimulate the proliferation
- proliferation of wt SFs ([1]; 3H-thymidine incorporation): no effects

Compound: 1-oleoyl-LPA (18:1)
- proliferation of wt SFs ([1]; 3H-thymidine incorporation): stimulated the proliferation
- synergy with TNF on SF proliferation ([1]; different concentrations of LPA and/or TNF): synergizes with TNF
- proinflammatory cytokine secretion from SFs [2]: stimulated proinflammatory cytokine secretion
- SF adhesion [3]: increased
- cytokine secretion from BDM macrophages [4]: No differences
- SF migration [5]: increased
- proliferation of macrophages [6]: no effects
- production of matrix metaloproteinases (MMPs) by SFs [7]: stimulated
- SF actin cytoskeleton [8]: rearrangements of their actin cytoskeleton

Compound: COc1cccc(-c2cc(=O)c3ccccc3o2)c1N [PD98059]
- LPA responses of wt SFs (LPA-induced proliferation) [1]: inhibited
